{"source": "patent US20260007680A1", "about": "“Compounds and Their Use as PDE4 Activators” (Mironid Limited, priority 2022, published 2026)"}
{"tested_on": "m-IMCD3 cells", "assay": "Inhibition of PGE2-stimulated in vitro cyst formation in 3D culture of m-IMCD3 cells (Experiment 4)", "assay_type": "cell-based, mouse", "conditions": "Mus musculus, mIMCD3, 144 h, 10 μM test compound, mean cyst area compared to 100% for (DMSO + PGE2) and 0% for DMSO control, read-out: % Cyst area* after incubation with 10 μM test compound", "units": {"activity at 10 µM": "%"}}
{"smiles": "Cc1cncc(-c2nc3cc(C(=O)N[C@H]4CCOc5ccccc54)ccc3[nH]2)c1", "note": "[Example 4, (S)—N-(chroman-4-yl)-2-(5-methylpyridin-3-yl)-1H-benzo[d]imidazole-5-carboxamide]", "activity at 10 µM": 18}
{"smiles": "Cc1cncc(-c2nc3ccc(C(=O)N[C@H]4CCOc5ccccc54)cc3n2C)c1", "note": "[Example 28, (S)—N-(chroman-4-yl)-1-methyl-2-(5-methylpyridin-3-yl)-1H-benzo[d]imidazole-6-carboxamide]", "activity at 10 µM": 8}
{"smiles": "Cc1ccncc1-c1nc2cc(C(=O)N[C@H]3CCOc4ccccc43)ccn2n1", "note": "[Example 53, (S)—N-(chroman-4-yl)-2-(4-methylpyridin-3-yl)-[1,2,4]triazolo[1,5-a]pyridine-7-carboxamide]", "activity at 10 µM": 20}
{"smiles": "Cc1ccc(-c2nc3cc(C(=O)N[C@H]4CCOc5ccccc54)ccc3[nH]2)cn1", "note": "[Example 2, (S)—N-(chroman-4-yl)-2-(6-methylpyridin-3-yl)-1H-benzo[d]imidazole-5-carboxamide]", "activity at 10 µM": 17}
